# Measured values published in US8404683B2, “Inhibitors of the interaction between MDM2 and P53” (Janssen Pharmaceutical N.V., priority 2004, dated 2013).
# System: U87MG cells
# Test: Proliferation assay (MTT-based) on U87MG tumour cells
# Settings: Homo sapiens, U-87 MG, 96 h, 4 days of incubation, negative log value of the IC50-value, read-out: cell proliferation pIC50 (converted)
# Experimental: U87MG cells are human glioblastoma cells with wild type p53. In this cell line MDM2 tightly controls p53 expression.
# Cellular activity of the compounds of formula (I) was determined on U87MG tumour cells using a colorimetric assay for cell toxicity or survival (see example C.2).
# All compounds tested were dissolved in DMSO and further dilutions were made in culture medium. Final DMSO concentrations never exceeded 0.1% (v/v) in cell proliferation assays. Controls contained U87MG cells and DMSO without compound and blanks contained DMSO but no cells.
# U87MG cells were seeded in 96-well cell culture plates at 3000 cells/well/100 μl. 24 hours later, medium was changed and compound and/or solvent were added to a final volume of 200 μl. Following 4 days of incubation, medium was replaced by 200 μl fresh medium and cell growth was assessed using a MTT-based assay. Therefore, 25 μl of the MTT solution (0.5% MTT research grade from Serva in phosphate-buffered saline) was added to each well and the cells were further incubated for 2 hours at 37° C. The medium was then carefully aspirated and the blue MTT-formazan product was dissolved by adding to each well 25 μl 0.1 M glycin and 100 μl DMSO. The plates were shaken for another 10 min on a micro plate shaker before reading absorbance at 540 nm by a Biorad micro plate reader.
# Within an experiment, the results for each experimental condition are the mean of 3 replicate wells. For initial screening purposes, compounds were tested at a single fixed concentration of 10^−5 M. For active compounds, the experiments were repeated to establish full concentration-response curves. For each experiment, controls (containing no drug) and a blank incubation (containing no cells or drugs) were run in parallel. The blank value was subtracted from all control and sample values. For each sample, the mean value for cell growth (in absorbance units) was expressed as a percentage of the mean value for cell growth of the control. When appropriate, IC50-values (concentration of the drug, needed to reduce cell growth to 50% of the control) were computed using probit analysis for graded data (Finney, D. J., Probit Analyses, 2nd Ed. Chapter 10, Graded Responses, Cambridge University Press, Cambridge 1962). Herein the effects of test compounds are expressed as pIC50 (the negative log value of the IC50-value) (see table F-2).
row,IC50 [nM],SMILES
1,1580,COC(=O)c1cc(Nc2ccc(NCCc3c[nH]c4cc(OC)ccc34)cc2)ccn1 [Compound 178]
2,251,COc1cc(Nc2ccnc(CO)c2)ccc1NCCc1c[nH]c2ccccc12 [Compound 179]
3,631,COc1ccc2c(CCNc3ccc(Nc4ccnc(CO)c4)cc3)c[nH]c2c1 [Compound 180]
4,501,Cc1ccc2c(CCNc3ccc(Nc4ccncc4)cc3)c[nH]c2c1 [Compound 183]
5,1000,Fc1ccc2c(CCNc3ccc(Nc4ccncc4)cc3)c[nH]c2c1 [Compound 184]
6,2000,Cc1ccc2[nH]cc(CCNc3ccc(Nc4ccncc4)cc3)c2c1 [Compound 185]
7,3160,Cc1ccc2[nH]cc(CCNc3ccc(Nc4ccnc(CO)c4)cc3)c2c1 [Compound 189]
8,> 10000,Brc1ccc2c(CCNc3ccc(Nc4ccncc4)cc3)c[nH]c2c1 [Compound 192]
9,1000,OCc1cc(Nc2ccc(NCCc3c[nH]c4cc(F)ccc34)cc2)ccn1 [Compound 193]
10,79.4,O[C@@H]1CCc2c(Nc3ccc(NCCc4c[nH]c5ccccc45)cc3)ccnc21 [Compound 195]
11,1260,c1ccc2c(CCNc3ccc(Nc4ccnc5[nH]ccc45)cc3)c[nH]c2c1 [Compound 198]
12,3160,CC(C)(O)c1cc(Nc2ccc(NCCc3c[nH]c4ccccc34)cc2)ccn1 [Compound 201]
13,3160,CC(=O)OC(C)(C)c1cc(Nc2ccc(NCCc3c[nH]c4ccccc34)cc2)ccn1 [Compound 202]
14,3160,CCC(O)c1cc(Nc2ccc(NCCc3c[nH]c4ccccc34)cc2)ccn1 (stereo not shown) [Compound 203]
15,7940,O=C(c1cc(Nc2ccc(NCCc3c[nH]c4ccccc34)cc2)ccn1)C1CC1 [Compound 204]
16,3160,CC(=O)NCc1cc(Nc2ccc(NCCc3c[nH]c4ccccc34)cc2)ccn1 [Compound 206]

# Continued, molecule first:
row,SMILES,IC50 [nM]
1,CCOc1cc(Nc2ccncc2)ccc1NCCc1c[nH]c2cc(OC)ccc12 [Compound 177],50.1
2,COc1ccc2c(CCNc3ccc(Nc4ccnc(CO)c4)cc3OC)c[nH]c2c1 [Compound 181],251
3,Clc1ccc2[nH]cc(CCNc3ccc(Nc4ccncc4)cc3)c2c1 [Compound 182],1580
4,Clc1cccc2[nH]cc(CCNc3ccc(Nc4ccncc4)cc3)c12 [Compound 186],1000
5,Cc1cccc2c(CCNc3ccc(Nc4ccncc4)cc3)c[nH]c12 [Compound 187],398
6,COc1cccc2c(CCNc3ccc(Nc4ccncc4)cc3)c[nH]c12 [Compound 188],794
7,c1cnc2[nH]cc(CCNc3ccc(Nc4ccncc4)cc3)c2c1 [Compound 190],3980
8,COc1cccc2[nH]cc(CCNc3ccc(Nc4ccncc4)cc3)c12 [Compound 191],3160
9,N#CC=Cc1ccc2c(CCNc3ccc(Nc4ccncc4)cc3)c[nH]c2c1 [Compound 194],6310
10,COc1ccc2c(CCNc3ccc(Nc4ccnc5c4CCC5O)cc3)c[nH]c2c1 (stereo not shown) [Compound 196],200
11,CCOc1cc(Nc2ccnc3c2CCCC3O)ccc1NCCc1c[nH]c2cc(OC)ccc12 (stereo not shown) [Compound 197],251
12,Clc1cccc(CC(CNc2ccc(Nc3ccncc3)cc2)c2c[nH]c3ccccc23)c1 (stereo not shown) [Compound 199],2000
13,CCOc1cc(Nc2ccnc(C(C)O)c2)ccc1NCCc1c[nH]c2cc(OC)ccc12 (stereo not shown) [Compound 205],794
14,O=C(C(Cc1c[nH]c2ccccc12)Nc1ccc(Nc2ccncc2)cc1)N(CCCCO)Cc1ccccc1 (stereo not shown) [Compound 207],794
15,O=C(C(Cc1c[nH]c2ccccc12)Nc1ccc(Nc2ccncc2)cc1)N1CCCC1CO (stereo not shown) [Compound 208],> 10000
16,O=C(C(Cc1c[nH]c2ccccc12)Nc1ccc(Nc2ccncc2)cc1)N1CCC(CO)C1 (stereo not shown) [Compound 209],> 10000
17,O=C(C(Cc1c[nH]c2ccccc12)Nc1ccc(Nc2ccncc2)cc1)N1CCC(CCO)C1 (stereo not shown) [Compound 210],> 10000
18,CN(C)CCN(Cc1ccccc1)C(=O)C(Cc1c[nH]c2ccccc12)Nc1ccc(Nc2ccncc2)cc1 (stereo not shown) [Compound 211],63.1
